Experimental data as given in EP0390602A1, “Neurotrophic peptides” (SUMITOMO PHARMACEUTICALS COMPANY, LIMITED, priority 1989, dated 1990).
Several values for one entry are separate records, joined by “and”; a condition that tells them apart may be missing. Equal values may be shown once. Where no end group is shown, it is not given here.

System: culture of rat medial septum nucleous
Assay: Enhancing effect on acetylcholine synthesis in culture of rat medial septum nucleus (method of Ojika et al.)
Assay type: cell-based
Conditions: for Ash synthesis (%): Table 4, Concentration 1 x 10⁻⁸, control value as 100%, several single values per cell
Experimental: The neurotrophic peptide and its derivative of the present invention can regulate differentiation and maturation of neuronal cells. That is, the neurotrophic peptide and its derivative accelerate the acetylcholine synthesis in the tissue of medial septum nucleous which is rich in cholinergic neuron. The biological activity can be determined by the method of Ojika, K., et al. [Ojika, K., et al., Japanese Journal of Psycopharmacology, 7, 447-451, (1987)].
The peptides were assayed for a biological activity in accordance with the method of Ojika et al. [Japanese Journal of Psycopharmacology, 7, 447-451 (1987)]. Namely, medial septum nucleous removed from rat embryonal brain (16 day embryo) is cut to small pieces, then the pieces were cultured in the Bottenstein's modified N₂ medium containing 1% FCS of saturation concentration, in Falcon's 35 mm plastic culture dish with 7% CO₂ mixed air, at 36°C. The neurotrophic peptide or its derivative was added to the cultures at initial day. In a control group, no peptide is added. The neurotrophic peptide may be added to the culture at 3 days after the initial day. After 6 days culture, an acetylcholine synthesis activity of cultured tissue was assayed to determine the biological activity of the peptide. The acetylcholine synthesis activity was assayed as follows.
A cultured tissue was pre-incubated in high potasium Tyrode solution buffered with tris-HCl (pH 7.4) containing 98 mM of Nacl and 55 mM of Kcl , then incubated in a buffered solution containing 100 nM [³H] choline chloride (15 Ci/mmol) at 37°C for 30 minutes. After washing out of free [³H] choline, the tissue was dissolved in 1 N formic acid/acetone (15 : 85) solution. Free [³H] choline was converted to phosphocholine by choline kinase (0.1 unit/ml) and [³H] acetylcholine was extracted with tetraphenyl boron (5 mg/ml acetonitrile) to determine the acetylcholine synthesis activity. The activity of cultured tissue for synthesis of acetylcholine was defined as an amount of synthesized acetylcholine per piece of cultured tissue.

DISQWAG-NH2 [HCNP(3-9)NH₂]
Ash synthesis (%): 224% and 138%

H-AADISQWAGPL-OH [f-HCNP, H-Ala-Ala-Asp-Ile-Ser-Gln-Trp-Ala-Gly-Pro-Leu-OH]
Ach synthesis activity (Table 3, 2.5 pg/ml, 6 days culture, average value in triplet assay, Control 7.1 ± 1.1): 11.3 ± 0.8 fmol/specimen | acetylcholine synthesis activity as compared with control culture (concentration of 2.5 pg/ml): 159%

Ac-AADISQWAG-NH2 [Ac-HCNP(1-9)NH₂]
Ash synthesis (%): 227% and 216%

ISQWAGPL [HCNP(4-11)OH, Ile-Ser-Gln-Trp-Ala-Gly-Pro-Leu]
Ash synthesis (%): 160% and 139%
